Assay [1] concerns 4R Tau^P301L-BiFC mouse. Put plainly: Y-maze experiment in 4R tauopathy mouse model. The format is in vivo. To be noted: GV2002 2 mg/kg subcutaneous, 3 times/week, 21 weeks; 8 minutes Y-maze. The procedure: (§1) In vivo experiments were performed on the 4R tauopathy mouse groups shown in FIG. 4 according to the schedule shown in FIG. 5 and the outline in Table 3 below.
Y-maze experiments were conducted on a 4R tauopathy mouse model administered GV2002 for five months, from 7.5 to 12.5 months of age, to evaluate the efficacy of GV2002 in alleviating impairment in spatial memory.
Prior to the experiment, mice were allowed one hour to acclimate to the testing environment. The mice's behavior was recorded for 8 minutes.

The subject of assay [2] is 4R Tau^P301L-BiFC mouse. Kind of assay: Rota-rod experiment in 4R tauopathy mouse model. The format is in vivo. To be noted: 3 times/week, 21 weeks. The method, then: as §1
Rota-rod experiments were conducted on mice with 4R tauopathy treated with GV2002 for five months, from 7.5 to 12.5 months of age, to evaluate the efficacy of GV2002 in alleviating impairment in motor ability.
On day 1, acclimation training was conducted, and on day 2, behavioral testing was conducted. Prior to acclimation training and behavioral testing, mice were allowed to acclimate to the testing environment for one hour. During acclimation training, mice walked on a […] at a speed ranging from 5 to 25 rpm for 300 seconds, and any mouse that lost its balance and fell to the floor was allowed to walk again. […] The measured values were analyzed using a two-way ANOVA with Dunnett's multiple comparisons test.

The test system of assay [3] is total tau (Tau5) and phosphorylated tau (pS199, pS396). Put plainly: Brain lysate analysis by tau immunoblot (soluble and insoluble fractions). To be noted: GV2002 2 mg/kg subcutaneous, 3 times/week, 21 weeks. It counts as in vivo, mouse. The procedure: as §1
Brain lysates from a 4R tauopathy mouse model administered GV2002 for five months, from 7.5 to 12.5 months of age, were obtained. Soluble and insoluble fraction samples were subjected to immunoblotting using antibodies against total tau (Tau5) and phosphorylated tau (pS199, pS396), and the levels of total and phosphorylated tau were quantitatively analyzed.
Mouse models were anesthetized, saline was intracardially perfused, and blood was removed using a perfusion pump device. The brain was then removed and weighed. 1 mL of RIPA buffer (containing protease and phosphatase inhibitor cocktails) was added to the extracted brain and homogenized.
The homogenized brain lysates were transferred to EP tubes and incubated on an orbital shaker at 4°C for 2 hours. After centrifugation at 13,000 rpm for 20 minutes at 4°C, the supernatant (soluble fraction) was collected in a new EP tube and stored at -80°C.
To prepare samples for immunoblotting, the concentrations of the fractionated samples were quantified using the Bradford protein quantification assay. RIPA buffer and 4X SDS Laemmli sample buffer (containing 2.5% β-mercaptoethanol for reducing conditions) were added to each sample to adjust the final protein concentration to 2 mg/mL. The samples were then boiled at 97°C for 5 minutes.
Meanwhile, to obtain the insoluble fraction, the remaining pellet after supernatant removal was resuspended in RIPA buffer containing 1 M sucrose (1 mL) and DNase I (1 mg/mL). […]
20 µg of each brain lysate sample of soluble and insoluble fractions were loaded onto a 10% SDS-PAGE gel (SDS-PAGE running buffer: 1X Tris/Glycine/SDS buffer in 3' D.W.), and electrophoresis was performed at 80 V for 30 minutes followed by 90 V for 1 hour. […] Protein bands of the membrane were detected using ChemiDoc with ECL solution, which is HRP substrate, and band intensities were quantified using ImageJ software (NIH).
On the technique in general: A western blot detects proteins with antibodies after separation by electrophoresis.

Assay [4] relates to 4R Tau^P301L-BiFC mouse. Kind of assay: Open field experiment in 4R tauopathy mouse model. It counts as in vivo. To be noted: GV2002 2 mg/kg subcutaneous, 3 times/week, 21 weeks; 10 minutes open field. The method, then:
as §1
Open field experiments were conducted on mice with 4R tauopathy administered GV2002 for five months, from 7.5 to 12.5 months of age, to evaluate the efficacy of GV2002 in alleviating impairment in motor ability.
To prevent changes in mouse behavioral responses, handling was performed for five days (days 1 to 5) prior to the experiment. Each handling session lasted two minutes. On day 6, mice were placed in a 40 cm × 40 cm enclosure and subjected to an open field experiment for 10 minutes. Prior to the experiment, mice were allowed one hour to acclimate to the testing environment. During the open field experiment, movement trajectories, distance traveled, and movement speed of the mice were recorded. The illumination level was maintained at a constant level throughout the experiment. The recorded values were analyzed using one-way ANOVA with Dunnett's multiple comparisons test.

The mark [5] stands for this setting: soluble fraction of brain lysate.

For Ac-EARPALLTSRLRFIPK-NH2 [GV2002], in the assay with 4R Tau^P301L-BiFC mouse [1], the “rate of spontaneous alternation behavior compared to the vehicle-administered group” value is listed as “significant increase”. Also, the “motor ability (Rota-rod) compared to the reference compound LMTM-administered group” value with 4R Tau^P301L-BiFC mouse [2] (GV2002 2 mg/kg subcutaneous vs LMTM 15 mg/kg oral) was “relatively enhanced motor ability”. The “motor ability (Rota-rod, time until fall) compared to the vehicle-administered group” value in the assay on 4R Tau^P301L-BiFC mouse [2] (GV2002 2 mg/kg subcutaneous, 7.5 to 12.5 months of age) was “significantly improved motor ability”. In assay [3] (insoluble fraction of brain lysate, total tau (Tau5)), the “level of insoluble tau, reduced to (compared to the vehicle-administered group)” value worked out at 57%. In addition, in assay [3] (setting [5]), the “phosphorylated tau pS199, reduced to (compared to the vehicle-administered group)” value was determined as 66% and the “phosphorylated tau pS396, reduced to (compared to the vehicle-administered group)” value amounted to 56%. Further, in the assay with 4R Tau^P301L-BiFC mouse [4], the “movement speed in the open space compared to the vehicle-administered group” value is listed as “significantly higher” and the “total distance traveled in the open space compared to the vehicle-administered group” value was “significantly higher”.

For the origin of these results see patent publication EP4729530A1, “NOVEL PEPTIDE AND USE THEREOF” (Gemvax & Kael Co., Ltd., priority 2023, dated 2024).
